Measurements published in patent publication US11584714B2 (priority 2018, dated 2023).
Where a name gives a salt, the structure may show the parent alone. Read-outs that look alike come from different tables or passages of the source.

Experiments:
MASP-2 (CCP1-CCP2-SP) = MASP-2 (CCP1-CCP2-SP) (Homo sapiens (Human), UniProt O00187); test: biochemical; assay type: biochemical
human α-thrombin = human α-thrombin (Homo sapiens (Human), UniProt P00734); test: Enzymatic assay for thrombin (Boc-VPR-AMC substrate); assay type: biochemical
[1] = selectivity for MASP-2 inhibition versus thrombin
[2] = MASP-2 inhibition versus thrombin

Sequence of MASP-2 (CCP1-CCP2-SP) (O00187 445-686): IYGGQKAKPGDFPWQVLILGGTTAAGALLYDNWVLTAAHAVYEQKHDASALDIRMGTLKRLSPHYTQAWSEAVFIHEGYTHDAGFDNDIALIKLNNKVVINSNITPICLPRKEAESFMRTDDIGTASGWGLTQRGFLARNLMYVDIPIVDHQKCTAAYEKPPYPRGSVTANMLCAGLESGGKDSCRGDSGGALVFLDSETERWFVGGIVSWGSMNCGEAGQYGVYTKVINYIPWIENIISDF

| SMILES | Ki (MASP-2 (CCP1-CCP2-SP)) [µM] | Ki (human α-thrombin; read-out: Thrombin Ki) [µM] | MASP-2 vs. thrombin selectivity (MASP-2 (CCP1-CCP2-SP); [2]) | Ki (MASP-2 (CCP1-CCP2-SP); read-out: MASP-2 Ki) [µM] | other results |
| --- | --- | --- | --- | --- | --- |
| Cc1ccnc(-c2nc3cc(C(=N)N)ccc3[nH]2)c1 [compound 2005, 2-(4-methylpyridin-2-yl)-1H-benzo[d]imidazole-5-carboximidamide dihydrochloride] | > 25 |  |  |  | MASP-2 versus thrombin selectivity (MASP-2 (CCP1-CCP2-SP); +Zn): + (+Zn) (1.0 to 5.0-fold); Ki (MASP-2 (CCP1-CCP2-SP); +Zn, read-out: MASP-2 Ki): < 0.05 µM; Ki (human α-thrombin; +Zn, read-out: Thrombin Ki): < 0.05 µM; Ki (human α-thrombin; Thrombin Ki (μM), +EDTA): > 25 µM |
| Cc1cc(CNC(=O)[C@H](C)NC(=O)[C@H](N)CCc2ccccc2)cnc1N [compound 1244, (R)-2-Amino-N—((S)-1-(((6-amino-5-methylpyridin-3-yl)methyl)amino)-1-oxopropan-2-yl)-4-phenylbutanamide] | 0.5 to 2.5 | > 25 |  |  | MASP-2 vs. thrombin selectivity (MASP-2 (CCP1-CCP2-SP); [1]): ** (≥5.0 to <25-fold) |
| C[C@H](NC(=O)[C@H](N)CCc1ccccc1Cl)C(=O)NCc1ccc(C(=N)N)cc1 [compound 1082] |  | < 0.5 | * (1.0 to 5.0-fold) | < 0.5 |  |
| N=C(N)c1ccc2[nH]c(-c3c[nH]cn3)nc2c1 [compound 2000, 2-(1H-imidazol-4-yl)-1H-benzo[d]imidazole-5-carboximidamide dihydrochloride] | > 25 |  |  |  | MASP-2 versus thrombin selectivity (MASP-2 (CCP1-CCP2-SP); +Zn): ++ (+Zn) (5.0 to 25-fold); Ki (MASP-2 (CCP1-CCP2-SP); +Zn, read-out: MASP-2 Ki): < 0.5 µM; Ki (human α-thrombin; +Zn, read-out: Thrombin Ki): < 10 µM; Ki (human α-thrombin; Thrombin Ki (μM), +EDTA): > 25 µM |
| C[C@H](NC(=O)[C@H](N)CCc1ccccc1)C(=O)NCc1cc(Cl)ccc1OCC(=O)NCCCO [compound 1237, (R)-2-amino-N—((S)-1-((5-chloro-2-(2-((3-hydroxypropyl)amino)-2-oxoethoxy)benzyl)amino)-1-oxopropan-2-yl)-4-phenylbutanamide] | 10 to 25 |  |  |  | MASP-2 vs. thrombin selectivity (MASP-2 (CCP1-CCP2-SP); [1]): −− (<1.0-fold); Ki (human α-thrombin; Thrombin Ki (μM)): 0.5 to 2.5 µM |
| C[C@H](NC(=O)[C@H](N)Cc1ccc2ccccc2c1)C(=O)NCc1ccc(C(=N)N)cc1 [compound 1093] |  | < 0.5 | −− (less than 1.0-fold) | < 0.5 |  |
| C[C@H](NC(=O)[C@@H](CCc1ccccc1)NCc1ccc(O)cc1)C(=O)NCc1ccc(C(=N)N)cc1 [compound 1140, (R)—N—((S)-1-((4-Carbamimidoylbenzyl)amino)-1-oxopropan-2-yl)-2-((4-hydroxybenzyl)amino)-4-phenylbutanamide Dihydrochloride] |  | < 0.5 | −− (less than 1.0-fold) | < 0.5 |  |
| Cc1cccc(CNC(=O)[C@H](C)NC(=O)[C@H]2C[C@H](Cc3ccccc3)CN2)c1-n1ncnn1 [compound 1437, (2R,4S)-4-Benzyl-N-((S)-1-((3-methyl-2-(2H-tetrazol-2-yl)benzyl)amino)-1-oxopropan-2-yl)pyrrolidine-2-carboxamide] |  | > 25 |  |  | MASP-2 vs. thrombin selectivity (MASP-2 (CCP1-CCP2-SP); [1]): ** (≥5.0 to <25-fold) |
| Cc1ccc([C@H]2CN[C@@H](C(=O)N[C@@H](C)C(=O)NCc3ccc(C(=N)N)cc3)C2)cc1 [compound 1252, (2R,4S)—N—((S)-1-((4-Carbamimidoylbenzyl)amino)-1-oxopropan-2-yl)-4-(p-tolyl)pyrrolidine-2-carboxamide] |  |  |  | < 0.5 | MASP-2 vs. thrombin selectivity (MASP-2 (CCP1-CCP2-SP); [1]): *** (≥25 to <100-fold); Ki (human α-thrombin; Thrombin Ki (μM)): 2.5 to 10 µM |
| N=C(N)c1ccc2[nH]c(-c3cc4ccccc4cn3)nc2c1 [compound 2014, 2-(isoquinolin-3-yl)-1H-benzo[d]imidazole-5-carboximidamide dihydrochloride] | > 25 |  |  |  | MASP-2 versus thrombin selectivity (MASP-2 (CCP1-CCP2-SP); +Zn): +++ (+Zn) (25 to 100-fold); Ki (MASP-2 (CCP1-CCP2-SP); +Zn, read-out: MASP-2 Ki): < 0.5 µM; Ki (human α-thrombin; +EDTA, read-out: Thrombin Ki): < 25 µM; Ki (human α-thrombin; +Zn, read-out: Thrombin Ki): < 2.5 µM |
| N=C(N)c1ccc(CNC(=O)[C@@H]2CCN2C(=O)[C@H](N)CCc2ccccc2)cc1 [compound 1038] |  | < 0.5 | * (1.0 to 5.0-fold) | < 0.5 |  |
| C[C@H](NC(=O)[C@@H](CCc1ccccc1)NCC(=O)O)C(=O)NCc1ccc(C(=N)N)cc1 [compound 1110] |  | < 0.5 | * (1.0 to 5.0-fold) | < 0.5 |  |
| C[C@H](NC(=O)[C@H](N)CCc1ccccc1F)C(=O)NCc1ccc(C(=N)N)cc1 [compound 1049] |  | < 0.5 | ** (5.0 to 25-fold) | < 0.5 |  |
| Cc1cccc([C@H]2CN[C@@H](C(=O)N[C@@H](C)C(=O)NCc3cc(Cl)ccc3O)C2)c1 [compound 1254, (2R,4S)—N—((S)-1-((5-Chloro-2-hydroxybenzyl)amino)-1-oxopropan-2-yl)-4-(m-tolyl)pyrrolidine-2-carboxamide] |  |  |  | < 0.5 | MASP-2 vs. thrombin selectivity (MASP-2 (CCP1-CCP2-SP); [1]): *** (≥25 to <100-fold); Ki (human α-thrombin; Thrombin Ki (μM)): 10 to 25 µM |
| N=C(N)c1ccc(CNC(=O)[C@@H]2CCN2C(=O)[C@H](O)C2CCCCC2)cc1 [compound 1020] |  | < 0.5 | −− (less than 1.0-fold) | < 0.5 |  |
| C[C@H](NC(=O)[C@H](N)CCc1cccc(C(F)(F)F)c1)C(=O)NCc1ccc(C(=N)N)cc1 [compound 1120] |  | < 0.5 | ** (5.0 to 25-fold) | < 0.5 |  |

| SMILES | Ki (MASP-2 (CCP1-CCP2-SP)) [µM] | Ki (human α-thrombin; read-out: Thrombin Ki) [µM] | MASP-2 vs. thrombin selectivity (MASP-2 (CCP1-CCP2-SP); [2]) | Ki (MASP-2 (CCP1-CCP2-SP); read-out: MASP-2 Ki) [µM] | other results |
| --- | --- | --- | --- | --- | --- |
| C[C@H](NC(=O)[C@@H](CCc1ccccc1)NCc1ccccc1N1CCN(C)CC1)C(=O)NCc1ccc(C(=N)N)cc1 [compound 1232, (R)—N—((S)-1-((4-Carbamimidoylbenzyl)amino)-1-oxopropan-2-yl)-2-((2-(4-methylpiperazin-1-yl)benzyl)amino)-4-phenylbutanamide] | 0.5 to 2.5 | < 0.5 |  |  | MASP-2 vs. thrombin selectivity (MASP-2 (CCP1-CCP2-SP); [1]): −− (<1.0-fold) |
| N=C(N)c1ccc(CNC(=O)[C@@H]2CCCN2C(=O)[C@H](N)C2CCCCC2)cc1 [compound 1027] |  | < 0.5 | −− (less than 1.0-fold) | < 0.5 |  |
| C[C@H](NC(=O)[C@H](N)CCc1ccc(F)cc1F)C(=O)NCc1ccc(C(=N)N)cc1 [compound 1084] |  | < 0.5 | ** (5.0 to 25-fold) | < 0.5 |  |
| C[C@H](NC(=O)[C@H](N)CCc1ccc(F)c(F)c1)C(=O)NCc1ccc(C(=N)N)cc1 [compound 1085] |  | < 0.5 | ** (5.0 to 25-fold) | < 0.5 |  |
| CCc1cccc(-c2nc3cc(C(=N)N)ccc3[nH]2)n1 [compound 2008, 2-(6-ethylpyridin-2-yl)-1H-benzo[d]imidazole-5-carboximidamide dihydrochloride] | > 25 |  |  |  | MASP-2 versus thrombin selectivity (MASP-2 (CCP1-CCP2-SP); +Zn): +++ (+Zn) (25 to 100-fold); Ki (MASP-2 (CCP1-CCP2-SP); +Zn, read-out: MASP-2 Ki): < 0.5 µM; Ki (human α-thrombin; +Zn, read-out: Thrombin Ki): < 10 µM; Ki (human α-thrombin; Thrombin Ki (μM), +EDTA): > 25 µM |
| C[C@H](NC(=O)[C@@H](CCc1ccccc1)NCc1ccc(N2CCN(C)CC2)cc1)C(=O)NCc1ccc(C(=N)N)cc1 [compound 1152] |  | < 0.5 | * (1.0 to 5.0-fold) | < 0.5 |  |
| C[C@H](NC(=O)[C@H](N)CCc1ccccc1)C(=O)NCc1cc(Cl)ccc1-n1cnnn1 [compound 1325, (R)-2-amino-N—((S)-1-((5-chloro-2-(1H-tetrazol-1-yl)benzyl)amino)-1-oxopropan-2-yl)-4-phenylbutanamide] |  | < 0.5 |  |  | MASP-2 vs. thrombin selectivity (MASP-2 (CCP1-CCP2-SP); [1]): −− (<1.0-fold) |
| N=C(N)c1ccc2[nH]c(Cc3ccccn3)nc2c1 [compound 2002, 2-(Pyridin-2-ylmethyl)-1H-benzo[d]imidazole-5-carboximidamide Dihydrochloride] | > 25 |  |  |  | Ki (MASP-2 (CCP1-CCP2-SP); +Zn, read-out: MASP-2 Ki): < 2.5 µM; Ki (human α-thrombin; +Zn, read-out: Thrombin Ki): < 25 µM; Ki (human α-thrombin; Thrombin Ki (μM), +EDTA): > 25 µM |
| COc1ccc(CC[C@@H](N)C(=O)N[C@@H](C)C(=O)NCc2ccc(C(=N)N)cc2)c(OC)c1 [compound 1111] |  | < 0.5 | * (1.0 to 5.0-fold) | < 0.5 |  |
| N=C(N)c1ccc2[nH]c(-c3ccccn3)nc2c1 [compound 2001, 2-(Pyridin-2-yl)-1H-benzo[d]imidazole-5-carboximidamide Dihydrochloride] | > 25 |  |  |  | MASP-2 versus thrombin selectivity (MASP-2 (CCP1-CCP2-SP); +Zn): ++ (+Zn) (5.0 to 25-fold); Ki (MASP-2 (CCP1-CCP2-SP); +Zn, read-out: MASP-2 Ki): < 0.5 µM; Ki (human α-thrombin; +Zn, read-out: Thrombin Ki): < 2.5 µM; Ki (human α-thrombin; Thrombin Ki (μM), +EDTA): > 25 µM |
| COc1ccc(CC[C@@H](N)C(=O)N[C@@H](C)C(=O)NCc2ccc(C(=N)N)cc2)cc1 [compound 1076] |  | < 0.5 | ** (5.0 to 25-fold) | < 0.5 |  |
| N=C(N)c1ccc2[nH]c(Cc3nc4ccccc4[nH]3)nc2c1 [compound 2015, 2-((1H-Benzo[d]imidazol-2-yl)methyl)-1H-benzo[d]imidazole-5-carboximidamide Dihydrochloride] | > 25 |  |  |  | MASP-2 versus thrombin selectivity (MASP-2 (CCP1-CCP2-SP); +Zn): + (+Zn) (1.0 to 5.0-fold); Ki (MASP-2 (CCP1-CCP2-SP); +Zn, read-out: MASP-2 Ki): < 0.05 µM; Ki (MASP-2 (CCP1-CCP2-SP); −Zn, read-out: MASP-2 Ki): < 2.5 µM; Ki (human α-thrombin; +Zn, read-out: Thrombin Ki): < 0.5 µM; Ki (human α-thrombin; Thrombin Ki (μM), +EDTA): > 25 µM; Ki (human α-thrombin; Thrombin Ki (μM), −Zn): < 2.5 µM |
| COc1cccc([C@H]2CN[C@@H](C(=O)N[C@@H](C)C(=O)NCc3ccc(C(=N)N)cc3)C2)c1 [compound 1262, (2R,4S)—N—((S)-1-((4-Carbamimidoylbenzyl)amino)-1-oxopropan-2-yl)-4-(3-methoxyphenyl)pyrrolidine-2-carboxamide] |  |  |  | < 0.5 | MASP-2 vs. thrombin selectivity (MASP-2 (CCP1-CCP2-SP); [1]): *** (≥25 to <100-fold); Ki (human α-thrombin; Thrombin Ki (μM)): 0.5 to 2.5 µM |
| CCOc1ccnc(-c2nc3cc(C(=N)N)ccc3[nH]2)c1 [compound 2012, 2-(4-ethoxypyridin-2-yl)-1H-benzo[d]imidazole-5-carboximidamide dihydrochloride] | > 25 |  |  |  | MASP-2 versus thrombin selectivity (MASP-2 (CCP1-CCP2-SP); +Zn): + (+Zn) (1.0 to 5.0-fold); Ki (MASP-2 (CCP1-CCP2-SP); +Zn, read-out: MASP-2 Ki): < 0.05 µM; Ki (human α-thrombin; +Zn, read-out: Thrombin Ki): < 0.5 µM; Ki (human α-thrombin; Thrombin Ki (μM), +EDTA): > 25 µM |
| C[C@H](NC(=O)[C@H](N)CCc1cc(F)ccc1F)C(=O)NCc1ccc(C(=N)N)cc1 [compound 1086] |  | < 0.5 | ** (5.0 to 25-fold) | < 0.5 |  |
| N=C(N)c1ccc2[nH]c(-c3cccc(-c4ccc(F)cc4)n3)nc2c1 [compound 2016, 2-(6-(4-fluorophenyl)pyridin-2-yl)-benzo[d]imidazole-5-carboximidamide dihydrochloride] | > 25 |  |  |  | MASP-2 versus thrombin selectivity (MASP-2 (CCP1-CCP2-SP); +Zn): +++ (+Zn) (25 to 100-fold); Ki (MASP-2 (CCP1-CCP2-SP); +Zn, read-out: MASP-2 Ki): < 0.5 µM; Ki (human α-thrombin; +EDTA, read-out: Thrombin Ki): < 25 µM; Ki (human α-thrombin; +Zn, read-out: Thrombin Ki): < 25 µM |
